Patent US12714688B2, “Margaric acid decreases PIEZ02-mediated pain” (The United States of America, as represented by The …, priority 2020, dated 2026)
Entries after “also recorded” stand apart in the source; their conditions may differ.

Key:
endogenous PIEZO2 = biological target: T1, endogenous PIEZO2 (Homo sapiens, UniProt Q9H5I5); assay: Whole-cell patch-clamp of mechanically activated currents in human iPSC-derived neurons; assay type: cell-based
T1 construct: endogenous in cells; host or cells: sensory neurons differentiated from human WTC11 iPSC line
Text: (§1) Human iPSC-derived neurons: For generating human peripheral sensory neuron cultures, a version of the healthy control WTC11 iPSC line was used. This line was previously engineered to harbor a doxycycline-inducible NGN2-BRN3A construct that enables rapid and efficient sensory neuron differentiation. Undifferentiated iPSCs were maintained in E8 flex medium (invitrogen) on polystyrene plates coated with Matrigel® (Corning). The medium was exchanged every 1-3 days, and the cells were passaged every 4-7 days with Accutase® (Invitrogen) and plated overnight with 10 μM of the ROCK-inhibitor Y-27632 (Tocris). For sensory neuron differentiation, iPSCs were seeded at 20,000 cells·(cm2)−1 in neural differentiation medium (NDM) on Matrigel®-coated plates. The cells were then re-plated after 48 hours at 50,000 cells·(cm^2)^−1 onto dishes coated with polyethylenimine (Sigma-Aldrich) and laminin (Invitrogen). NDM consisted of (all from Invitrogen) 1:1 DMEM/F12 and Neurobasal™ medium supplemented with N2, B27, and GlutaMAX™ at manufacturer-recommended dilution. 2 μg·ml^−1 doxycycline (Clontech) was included in the medium for the duration of the culture, 10 μM.

mice = assay: Hargreaves radiant heat test after daily hind paw injection; assay type: in vivo, mouse; details: MA 5 mM injected daily into hind paw for 7 days
Experimental: Mice behavior: MA solution: MA was prepared in sterile Dulbecco's phosphate buffered saline, with 70 g/L fatty acid free bovine serum albumin (BSA; Sigma), and MA to a final concentration of 5 mM. The solution was filtered to avoid undissolved materials.
Subjects: For the experiment 8-12 weeks old male and female C57B16/J mice (N=12; control n=6; male=3, female=3) MA (n=6; male=3, female=3) per experiment were used. Mice were housed under a 12 hr light dark cycle and granted access to food and water ad libitum.
Treatment: Animals were put in two groups (control and MA) and given injections in the plantar of the left hind paw for 7 days prior behavioral assessment. Injections were given as follows: Mouse is restrained by their tail, foot, and over shoulders scruff. The compound is delivered using a 3/10 cc insulin syringe into the plantar surface of the back foot of each mouse. The beveled needle is inserted at a 35-40° angle and 20-50 μl of the compound is injected subcutaneously. The needle is held in place for several seconds before being removed and the animal is returned to its home cage. […]
Thermal threshold (Hargreaves test): Animals were placed in small enclosures over a glass plate heated to 32° C. […] The latency for each rodent to withdraw the paw is recorded with three stimulus presentations administered per paw. […]

[1] = system: human iPSC-derived neurons; assay: Voltage-activated currents in human iPSC-derived neurons; assay type: cell-based; details: 300 μM vs control
Text: as §1, with “μM. Y-27632 was supplemented for the first 48 hours, and the following neurotrophic factors were added from day 8 onward at 10 ng/ml each (all from R&D systems): BDNF, GDNF, β-NGF, and NT-3. […]” for “μM.”

Piezo2 V14 = assay: Whole-cell patch-clamp of N2A^Piezo1−/− cells transfected with Piezo2 V14; details: 300 μM; 18 h
Experimental: (§2) Cell culture and electrophysiology: Piezo1 knock-out mouse N2A (N2A^Piezo1−/−) cells were a gift from Dr. Gary R. Lewin, human Merkel cell carcinoma cell line (MCC13 cells; Cell Bank Australia reference number: CBA1338) were obtained from Sigma, and DRG neurons were obtained from sacrificed mice. N2A^Piezo1−/− cells were cultured in Dulbecco's Modified Eagle Medium (DMEM), 5% penicillin streptomycin and 10% fetal bovine serum (FBS); MCC13 cells were cultured in RPMI 1640 (with 2 mM L-glutamine+25 mM HEPES; Sigma), 5% penicillin-streptomycin and 10% FBS and; DRG neurons were cultured in DMEM, 1% penicillin-streptomycin, 1% MEM vitamin solution, 1% L-glutamine, and 10% horse serum. Prior to electrophysiological measurements, N2A^Piezo1−/−, MCC13 and DRG neurons were supplemented overnight (≈18 h) with MA. […] MA was obtained from Nu-Chek Prep, INC. The cultured cells were maintained at 37° C., 95% relative humidity, and 5% CO2.
(§3) For whole-cell recordings, the bath solution contained 140 mM NaCl, 6 mM KCl, 2 mM CaCl2), 1 mM MgCl2, 10 mM glucose, and 10 mM HEPES (pH 7.4; 300 mOsm). […]
(§4) During mechanical stimulation, currents were recorded at a constant voltage (−60 mV, voltage-clamp), and voltages were recorded without injecting current (current-clamp). […]

rat DRG neurons = assay: Current-clamp recording of action potentials elicited by mechanical stimuli in rat DRG neurons; details: 300 μM
Experimental: N2A^Piezo1−/− cells were cultured in Dulbecco's Modified Eagle Medium (DMEM), 5% penicillin streptomycin and 10% fetal bovine serum (FBS); MCC13 cells were cultured in RPMI 1640 (with 2 mM L-glutamine+25 mM HEPES; Sigma), 5% penicillin-streptomycin and 10% FBS and; DRG neurons were cultured in DMEM, 1% penicillin-streptomycin, 1% MEM vitamin solution, 1% L-glutamine, and 10% horse serum. […] The cultured cells were maintained at 37° C., 95% relative humidity, and 5% CO2.
For whole-cell recordings, the bath solution contained 140 mM NaCl, 6 mM KCl, 2 mM CaCl2), 1 mM MgCl2, 10 mM glucose, and 10 mM HEPES (pH 7.4; 300 mOsm). […] Pipettes were made out of borosilicate glass (Sutter Instruments) and were fire-polished before use until a resistance between 3 and 5 MΩ was reached.
During mechanical stimulation, currents were recorded at a constant voltage (−60 mV, voltage-clamp), and voltages were recorded without injecting current (current-clamp). Both variables were sampled at 100 kHz and low-pass filtered at 10 kHz using a MultiClamp™ 700 B amplifier and Clampex (Molecular Devices, LLC). To measure voltage-dependent currents, a square-pulse protocol consisting of 40-ms 20-mV incremental steps starting from −80 mV in 500-ms intervals with P/4 subtraction was used; and to record action potentials evoked by current injection, 40-ms 20-pA incremental steps were injected in 500-ms intervals. […]

human PIEZO2 = human PIEZO2 (Homo sapiens, UniProt Q9H5I5); assay: Whole-cell patch-clamp of N2A^Piezo1−/− cells transfected with human Piezo2; details: 300 μM; 18 h
Experimental: as §2, §3, §4

[2] = also human Piezo2 in N2A^Piezo1−/− cells (FIG. 14c-d)

T1 sequence (Q9H5I5 whole entry): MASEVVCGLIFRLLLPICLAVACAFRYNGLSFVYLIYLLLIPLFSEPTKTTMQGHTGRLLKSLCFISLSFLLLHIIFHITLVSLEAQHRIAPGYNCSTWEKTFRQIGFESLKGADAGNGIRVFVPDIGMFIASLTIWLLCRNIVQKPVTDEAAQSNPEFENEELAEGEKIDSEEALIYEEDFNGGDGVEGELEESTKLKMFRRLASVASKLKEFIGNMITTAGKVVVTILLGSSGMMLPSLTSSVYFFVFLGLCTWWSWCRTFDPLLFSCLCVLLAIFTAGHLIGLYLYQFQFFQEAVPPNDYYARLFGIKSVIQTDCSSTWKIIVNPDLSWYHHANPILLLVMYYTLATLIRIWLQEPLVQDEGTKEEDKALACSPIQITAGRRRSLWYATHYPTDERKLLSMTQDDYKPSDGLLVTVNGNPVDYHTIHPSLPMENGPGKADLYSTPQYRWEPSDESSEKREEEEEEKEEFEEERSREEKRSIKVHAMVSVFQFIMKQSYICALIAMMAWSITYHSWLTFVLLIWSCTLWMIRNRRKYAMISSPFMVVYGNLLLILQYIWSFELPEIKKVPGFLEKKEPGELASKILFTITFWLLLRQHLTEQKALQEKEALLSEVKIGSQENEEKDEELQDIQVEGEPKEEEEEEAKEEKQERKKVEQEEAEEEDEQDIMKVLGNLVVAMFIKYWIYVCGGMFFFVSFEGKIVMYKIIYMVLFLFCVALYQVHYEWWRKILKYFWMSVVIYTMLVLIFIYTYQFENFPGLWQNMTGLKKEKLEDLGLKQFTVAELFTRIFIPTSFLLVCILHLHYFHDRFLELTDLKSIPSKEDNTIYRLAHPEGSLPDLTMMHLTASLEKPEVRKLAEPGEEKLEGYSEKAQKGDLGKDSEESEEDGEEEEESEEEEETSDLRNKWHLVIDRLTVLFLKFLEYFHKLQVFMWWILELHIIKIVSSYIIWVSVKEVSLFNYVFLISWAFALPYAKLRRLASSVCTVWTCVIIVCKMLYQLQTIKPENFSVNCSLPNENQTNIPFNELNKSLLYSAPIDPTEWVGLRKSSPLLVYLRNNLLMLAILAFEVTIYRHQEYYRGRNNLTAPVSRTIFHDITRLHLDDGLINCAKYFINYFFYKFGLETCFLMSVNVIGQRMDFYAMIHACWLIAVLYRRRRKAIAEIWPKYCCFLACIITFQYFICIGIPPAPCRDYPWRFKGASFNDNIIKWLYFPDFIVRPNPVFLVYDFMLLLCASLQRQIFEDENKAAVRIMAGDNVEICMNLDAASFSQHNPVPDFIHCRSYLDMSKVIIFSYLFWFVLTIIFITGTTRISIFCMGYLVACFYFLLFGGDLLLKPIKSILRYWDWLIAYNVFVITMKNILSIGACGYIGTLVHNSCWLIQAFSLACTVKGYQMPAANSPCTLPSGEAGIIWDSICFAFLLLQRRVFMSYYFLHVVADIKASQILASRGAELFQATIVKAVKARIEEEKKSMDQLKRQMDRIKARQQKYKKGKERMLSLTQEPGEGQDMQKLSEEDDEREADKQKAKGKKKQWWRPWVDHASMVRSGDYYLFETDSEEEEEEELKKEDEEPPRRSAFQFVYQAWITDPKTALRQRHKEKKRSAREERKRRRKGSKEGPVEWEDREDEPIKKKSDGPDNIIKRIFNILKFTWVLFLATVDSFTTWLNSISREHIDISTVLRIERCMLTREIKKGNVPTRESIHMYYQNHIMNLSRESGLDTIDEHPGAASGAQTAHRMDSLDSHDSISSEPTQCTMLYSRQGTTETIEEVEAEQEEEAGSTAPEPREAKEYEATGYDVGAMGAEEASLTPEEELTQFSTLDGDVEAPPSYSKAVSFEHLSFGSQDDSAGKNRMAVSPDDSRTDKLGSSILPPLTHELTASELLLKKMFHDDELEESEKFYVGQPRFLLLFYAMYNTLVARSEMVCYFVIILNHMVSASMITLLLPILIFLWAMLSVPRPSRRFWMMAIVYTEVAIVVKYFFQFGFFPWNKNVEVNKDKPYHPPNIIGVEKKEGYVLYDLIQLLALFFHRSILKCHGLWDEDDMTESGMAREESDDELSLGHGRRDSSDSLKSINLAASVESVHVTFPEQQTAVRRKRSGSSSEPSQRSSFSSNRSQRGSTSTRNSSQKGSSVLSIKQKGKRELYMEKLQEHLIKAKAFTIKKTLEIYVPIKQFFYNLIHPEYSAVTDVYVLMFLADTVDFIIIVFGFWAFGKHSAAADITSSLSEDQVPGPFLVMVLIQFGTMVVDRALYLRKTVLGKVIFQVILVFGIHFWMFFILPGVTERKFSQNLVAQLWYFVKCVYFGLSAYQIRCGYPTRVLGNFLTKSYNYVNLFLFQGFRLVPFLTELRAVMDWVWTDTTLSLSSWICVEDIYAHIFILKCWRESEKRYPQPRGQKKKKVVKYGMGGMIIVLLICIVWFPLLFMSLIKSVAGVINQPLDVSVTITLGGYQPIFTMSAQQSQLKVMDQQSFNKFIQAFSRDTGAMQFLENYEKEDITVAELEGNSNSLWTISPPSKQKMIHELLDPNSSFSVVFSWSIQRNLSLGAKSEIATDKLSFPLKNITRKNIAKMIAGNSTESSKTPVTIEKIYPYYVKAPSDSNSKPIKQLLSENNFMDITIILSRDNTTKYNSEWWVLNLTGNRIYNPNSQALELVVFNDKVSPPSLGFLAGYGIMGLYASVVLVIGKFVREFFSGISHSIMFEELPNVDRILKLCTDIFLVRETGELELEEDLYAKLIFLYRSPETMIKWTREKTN
Chain of human PIEZO2 (Q9H5I5 whole entry): as above

CCCCCCCCCCCCCCCCC(=O)O [MA, heptadecanoic acid]
effect on PIEZO2 currents (endogenous PIEZO2; 50 μM each day for 5 days): significantly decreased PIEZO2 currents | effect on endogenous PIEZO2 currents (endogenous PIEZO2; 300 and 600 μM overnight): significantly reduced endogenous PIEZO2 currents | mechanical threshold needed to activate the human channel (endogenous PIEZO2; [2]): increased the mechanical threshold needed to activate the human channel | time constant of inactivation (endogenous PIEZO2; [2]): without altering the time constant of inactivation | thermal withdrawal latencies / hyper-responsiveness to heat (mice): did not affect the ability of mice to sense thermal stimuli; also recorded: has no effect on this hyper-responsiveness to heat; also recorded: had no effect on thermal withdrawal latencies | voltage-activated inward Na+ and outward K+ currents [1]: did not change voltage-activated inward Na+ and outward K+ currents | effect on activity of Piezo2 V14 (Piezo2 V14): inhibited the activity | action potential firing elicited by mechanical stimuli (rat DRG neurons): reduces neuronal action potential firing elicited by mechanical stimuli | mechano-currents of human PIEZO2 (human PIEZO2): confirmed these results
